Experiment: in vivo
Design: species or system Wistar rats
Details: male, Wistar, rat, po
Source text: The primary objective of the test was to compare the pharmacokinetics of diclofenac potassium when used as a single active compound with diclofenac potassium in combination with famotidine and/or potassium bicarbonate. In this experimental study, the aim was to observe how the addition of potassium bicarbonate to diclofenac and famotidine would change the pharmacokinetic properties of diclofenac potassium when diclofenac potassium is given alone or in combination with famotidine and/or potassium bicarbonate.
Male Wistar rats (240-260 g) were used in the study. The rats were maintained in an air-conditioned animals quarter at a temperature of 22±2° C. and a relative humidity of 50±10%. Food and water were allowed ad libitum. The animals were acclimatized to the facilities for five days, and then fasted with free access to water for 12 h prior to the experiment. All the animals were housed under similar conditions.
Bioavailability and pharmacokinetics of diclofenac were studied in all the normal state of rats following an oral administration of 1 mg/kg diclofenac potassium, 0.4 mg/kg famotidine and 0.72 mg/kg or 0.36 mg/kg potassium bicarbonate in different occasions. Each rat was further subjected to similar studies after administration of diclofenac potassium and/or diclofenac in combination with famotidine. A total of 30 rats were used in the study divided into 5 groups, each group was administered; diclofenac alone, or 4 different combinations of diclofenac as outlined below.
Six male and/or female rats per group were lavaged with 1 mg/kg Diclofenac potassium and combinations at a dosing volume of 2 ml/kg. Blood (0.2 ml) was taken from the tail vein prior to administration of test substances (0 h) and after 0.083, 0.167, 0.25, 0.5, 1, 2, 4, 8 and 12 h.
Blood samples were collected in tubes containing %5 Na2-EDTA and kept on ice until 50 ul dichloromethane was added and they were centrifuged at 7000×g for 5 min at 4° C. and supernatants were collected for LC/MSMS analysis.

O=C(O)Cc1ccccc1Nc1c(Cl)cccc1Cl [Diclofenac-K, 2[(2,6-dichlorophenyl)amino]benzeneacetic acid]
Cmax: 1260 ng/mL
Tmax of diclofenac: 15 min
AUC(0-t) (1 mg/kg): 7510 ng·h/mL
Cmax (1 mg/kg): 1262 ± 0.048 ng/mL
Tmax (1 mg/kg): 15 min
Blood Concentrations of Diclofenac Potassium (1 mg/kg, 0.083 h): 1.096 ± 0.054
Blood Concentrations of Diclofenac Potassium (1 mg/kg, 0.25 h): 1.262 ± 0.048
Blood Concentrations of Diclofenac Potassium (1 mg/kg, 0.5 h): 1.078 ± 0.137
Blood Concentrations of Diclofenac Potassium (1 mg/kg, 1 h): 0.943 ± 0.015
Blood Concentrations of Diclofenac Potassium (1 mg/kg, 2 h): 0.600 ± 0.159
Blood Concentrations of Diclofenac Potassium (1 mg/kg, 4 h): 0.600 ± 0.015
Blood Concentrations of Diclofenac Potassium (1 mg/kg, 8 h): 0.578 ± 0.033
Blood Concentrations of Diclofenac Potassium (1 mg/kg, 12 h): 0.486 ± 0.092

— patent US20200022936A1, “COMBINATIONS OF DICLOFENAC, H2 RECEPTOR ANTAGONISTS AND ALKALI METAL BICARBONATES FOR THE TREATMENT OF PAIN AND INFLAMMATION” (priority 2017, published 2020)
